Source: the NIST ThermoML archive (doi:10.1016/j.jct.2012.11.001)
± gives the expanded uncertainty stated by the source.

Experiment: wn = mass fraction of the nth substance listed
Conditions: 101 kPa, Liquid; for viscosity: Capillary tube (Ostwald / Ubbelohde) method; for speed of sound: Linear variable-path acoustic interferometer; for mass density: Pycnometric method

OC[C@H]1O[C@@](CO)(O[C@H]2O[C@H](CO)[C@@H](O)[C@H](O)[C@H]2O)[C@@H](O)[C@@H]1O [D-sucrose] + O
viscosity (293.15 K, w1 = 0.05): 1.214 ± 0.026 mPa·s
viscosity (293.15 K, w1 = 0.1): 1.376 ± 0.03 mPa·s
viscosity (293.15 K, w1 = 0.15): 1.609 ± 0.034 mPa·s
viscosity (293.15 K, w1 = 0.2): 1.932 ± 0.041 mPa·s
speed of sound (293.15 K, w1 = 0.05): 1501.4 ± 1.6 m/s
speed of sound (293.15 K, w1 = 0.1): 1522.5 ± 1.6 m/s
speed of sound (293.15 K, w1 = 0.15): 1533.4 ± 1.6 m/s
speed of sound (293.15 K, w1 = 0.2): 1545.2 ± 1.7 m/s
mass density (293.15 K, w1 = 0.05): 1018.91 ± 0.37 kg/m3
mass density (293.15 K, w1 = 0.1): 1039.28 ± 0.41 kg/m3
mass density (293.15 K, w1 = 0.15): 1060.31 ± 0.44 kg/m3
mass density (293.15 K, w1 = 0.2): 1082.73 ± 0.41 kg/m3
viscosity (298.15 K, w1 = 0.05): 1.011 ± 0.022 mPa·s
viscosity (298.15 K, w1 = 0.1): 1.183 ± 0.025 mPa·s
viscosity (298.15 K, w1 = 0.15): 1.418 ± 0.03 mPa·s
viscosity (298.15 K, w1 = 0.2): 1.756 ± 0.037 mPa·s
speed of sound (298.15 K, w1 = 0.05): 1516.5 ± 1.6 m/s
speed of sound (298.15 K, w1 = 0.1): 1531.8 ± 1.6 m/s
speed of sound (298.15 K, w1 = 0.15): 1543.6 ± 1.7 m/s
speed of sound (298.15 K, w1 = 0.2): 1555.3 ± 1.7 m/s
mass density (298.15 K, w1 = 0.05): 1017.19 ± 0.38 kg/m3
mass density (298.15 K, w1 = 0.1): 1037.45 ± 0.39 kg/m3
mass density (298.15 K, w1 = 0.15): 1058.49 ± 0.4 kg/m3
mass density (298.15 K, w1 = 0.2): 1080.77 ± 0.42 kg/m3
viscosity (303.15 K, w1 = 0.05): 0.9129 ± 0.019 mPa·s
viscosity (303.15 K, w1 = 0.1): 1.061 ± 0.023 mPa·s
viscosity (303.15 K, w1 = 0.15): 1.252 ± 0.027 mPa·s
viscosity (303.15 K, w1 = 0.2): 1.549 ± 0.033 mPa·s
speed of sound (303.15 K, w1 = 0.05): 1526.6 ± 1.6 m/s
speed of sound (303.15 K, w1 = 0.1): 1541.8 ± 1.7 m/s
speed of sound (303.15 K, w1 = 0.15): 1553 ± 1.7 m/s
speed of sound (303.15 K, w1 = 0.2): 1564.6 ± 1.7 m/s
mass density (303.15 K, w1 = 0.05): 1015.46 ± 0.39 kg/m3
mass density (303.15 K, w1 = 0.1): 1035.61 ± 0.4 kg/m3
mass density (303.15 K, w1 = 0.15): 1056.67 ± 0.41 kg/m3
mass density (303.15 K, w1 = 0.2): 1078.8 ± 0.43 kg/m3
viscosity (308.15 K, w1 = 0.05): 0.8285 ± 0.018 mPa·s
viscosity (308.15 K, w1 = 0.1): 0.9614 ± 0.02 mPa·s
viscosity (308.15 K, w1 = 0.15): 1.129 ± 0.024 mPa·s
viscosity (308.15 K, w1 = 0.2): 1.396 ± 0.03 mPa·s
speed of sound (308.15 K, w1 = 0.05): 1537.8 ± 1.7 m/s
speed of sound (308.15 K, w1 = 0.1): 1551.6 ± 1.7 m/s
speed of sound (308.15 K, w1 = 0.15): 1562 ± 1.7 m/s
speed of sound (308.15 K, w1 = 0.2): 1575.2 ± 1.7 m/s
mass density (308.15 K, w1 = 0.05): 1013.72 ± 0.4 kg/m3
mass density (308.15 K, w1 = 0.1): 1033.76 ± 0.41 kg/m3
mass density (308.15 K, w1 = 0.15): 1054.84 ± 0.42 kg/m3
mass density (308.15 K, w1 = 0.2): 1076.84 ± 0.43 kg/m3
viscosity (313.15 K, w1 = 0.05): 0.7457 ± 0.016 mPa·s
viscosity (313.15 K, w1 = 0.1): 0.8804 ± 0.018 mPa·s
viscosity (313.15 K, w1 = 0.15): 1.025 ± 0.022 mPa·s
viscosity (313.15 K, w1 = 0.2): 1.25 ± 0.026 mPa·s
speed of sound (313.15 K, w1 = 0.05): 1547.7 ± 1.7 m/s
speed of sound (313.15 K, w1 = 0.1): 1561.8 ± 1.7 m/s
speed of sound (313.15 K, w1 = 0.15): 1570.8 ± 1.7 m/s
speed of sound (313.15 K, w1 = 0.2): 1583.9 ± 1.7 m/s
mass density (313.15 K, w1 = 0.05): 1011.98 ± 0.4 kg/m3
mass density (313.15 K, w1 = 0.1): 1031.93 ± 0.42 kg/m3
mass density (313.15 K, w1 = 0.15): 1053.01 ± 0.42 kg/m3
mass density (313.15 K, w1 = 0.2): 1074.88 ± 0.44 kg/m3
viscosity (318.15 K, w1 = 0.05): 0.6946 ± 0.015 mPa·s
viscosity (318.15 K, w1 = 0.1): 0.8179 ± 0.017 mPa·s
viscosity (318.15 K, w1 = 0.15): 0.9402 ± 0.02 mPa·s
viscosity (318.15 K, w1 = 0.2): 1.15 ± 0.024 mPa·s
speed of sound (318.15 K, w1 = 0.05): 1557.2 ± 1.7 m/s
speed of sound (318.15 K, w1 = 0.1): 1570.9 ± 1.7 m/s
speed of sound (318.15 K, w1 = 0.15): 1579.2 ± 1.7 m/s
speed of sound (318.15 K, w1 = 0.2): 1592.8 ± 1.7 m/s
mass density (318.15 K, w1 = 0.05): 1010.23 ± 0.41 kg/m3
mass density (318.15 K, w1 = 0.1): 1030.09 ± 0.39 kg/m3
mass density (318.15 K, w1 = 0.15): 1051.2 ± 0.41 kg/m3
mass density (318.15 K, w1 = 0.2): 1072.93 ± 0.45 kg/m3
